The values that follow come from patent publication US20120083522A1, “MODULATION OF INFLAMMATORY RESPONSES BY FACTOR XI” (Isis Pharmaceuitcals, inc., priority 2009, published 2012).

Common to all, as to assay type: cell-based
Series [1] has as its system human Factor XI mRNA. Put plainly: Antisense inhibition in HepG2 cells by microwalk gapmers, 75 nM, lipofectin (Example 3). As to conditions: HepG2 cells, 75 nM. In a few lines:
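HepG2 cells (10,000 per well) were transfected with 75 nM gapmer using lipofectin and treated for about 24 h. Factor XI mRNA was quantified by real-time PCR, normalized to RiboGreen total RNA and expressed as percent inhibition versus untreated controls.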

Series [2] deals with human Factor XI mRNA. Put plainly: Dose-dependent inhibition in HepG2 cells, lipofectin (Example 4). The note with it: 16 hours. As for the experimental part:
(§1) Cells were plated at a density of 10,000 cells per well and transfected using lipofectin reagent with 9.375 nM, 18.75 nM, 37.5 nM and 75 nM concentrations of antisense oligonucleotide, as specified in Table 9. After a treatment period of approximately 16 hours, RNA was isolated from the cells and Factor XI mRNA levels were measured by quantitative real-time PCR. Human Factor XI primer probe set RTS 2966 was used to measure mRNA levels. Factor XI mRNA levels were adjusted according to total RNA content, as measured by RIBOGREEN®. Results are presented as percent inhibition of Factor XI, relative to untreated control cells.

The subject of series [3] is human Factor XI mRNA. Put plainly: Dose-dependent inhibition in HepG2 cells, electroporation (Example 4). As to conditions: 16 hours. As for the experimental part: as §1, with “The gapmers were also transfected via electroporation and their dose dependent inhibition of human Factor XI mRNA was measured. Cells” for “Cells”, “20,000” for “10,000”, “via electroporation” for “using lipofectin reagent”, “0.7 μM, 2.2 μM, 6.7 μM,” for “9.375 nM, 18.75 nM, 37.5 nM”, “20 μM” for “75 nM”, “10.” for “9.”

The mark [4] stands for this setting: oligonucleotides targeted to nucleobases 1275 to 1318 of SEQ ID NO: 1.
[5] abbreviates: oligonucleotides targeted to nucleobases 1018 to 1042 of SEQ ID NO: 1.
Where [6] appears, read: oligonucleotides targeted to nucleobases 1062 to 1091 of SEQ ID NO: 1.

In the oligonucleotide strings, read from the 5' end, every base follows the letter of its sugar. An asterisk marks phosphorothioate; unmarked linkages are phosphodiester. Other units and linkages are bracketed, terminal groups are in braces. A string of capitals states the bases alone. e = 2'-O-(2-methoxyethyl) (MOE); [5mC] = 5-methylcytosine; d = 2'-deoxy (DNA)

For “416931 (antisense eG*eG*e[5mC]*dA*dT*dT*dG*dG*dT*dG*d[5mC]*dA*d[5mC]*dA*dG*dT*dT*eT*e[5mC]*eT) [compound 416931]”, the “% inhibition of human Factor XI mRNA levels” value (from here on “% inhibition”) in the series on human Factor XI mRNA [1] (setting [4]) was 96%. Further, the “percent inhibition of Factor XI mRNA, relative to untreated control cells” value in the series on human Factor XI mRNA [2] (9.375 nM) turned out to be 44%; in the series on human Factor XI mRNA [2] (18.75 nM) it was 39%; in the series on human Factor XI mRNA [2] (37.5 nM), 57%; in the series with human Factor XI mRNA [2] (75 nM), 71%; in the series with human Factor XI mRNA [3] (0.7 μM), 7%; with human Factor XI mRNA [3] (2.2 μM) it was 24%. Further, the “percent inhibition of Factor XI mRNA, relative to untreated control cells” value in the series on human Factor XI mRNA [3] (6.7 μM) was determined as 60%; in the series on human Factor XI mRNA [3] (20 μM), 82%.

Consider “416941 (antisense eG*eG*e[5mC]*dA*dG*d[5mC]*dG*dG*dA*d[5mC]*dG*dG*d[5mC]*dA*dT*dT*dG*eG*eT*eG) [compound 416941]”, for which the “% inhibition” value in the series with human Factor XI mRNA [1] (setting [4]) came to 95%. Moreover, the “percent inhibition of Factor XI mRNA, relative to untreated control cells” value came out at 33% in the series on human Factor XI mRNA [2] (9.375 nM); 54% in the series with human Factor XI mRNA [2] (18.75 nM); 63% in the series with human Factor XI mRNA [2] (37.5 nM); 78% with human Factor XI mRNA [2] (75 nM); 16% in the series with human Factor XI mRNA [3] (0.7 μM); 38% with human Factor XI mRNA [3] (2.2 μM). The “percent inhibition of Factor XI mRNA, relative to untreated control cells” value stood at 79% in the series on human Factor XI mRNA [3] (6.7 μM) and 89% in the series on human Factor XI mRNA [3] (20 μM).

Regarding “416984 (antisense e[5mC]*eA*dA*d[5mC]*d[5mC]*dG*dG*dG*dA*dT*dG*dA*dT*dG*dA*eG*eT*eG*e[5mC]*eA) [compound 416984]”, in the series with human Factor XI mRNA [1] (setting [5]), the “% inhibition” value came to 89%. Besides, the “percent inhibition of Factor XI mRNA, relative to untreated control cells” value with human Factor XI mRNA [2] (9.375 nM) turned out to be 26%; with human Factor XI mRNA [2] (18.75 nM), 50%; in the series with human Factor XI mRNA [2] (37.5 nM) it was 62%; with human Factor XI mRNA [2] (75 nM) it was 81%; in the series with human Factor XI mRNA [3] (0.7 μM), 43%; in the series with human Factor XI mRNA [3] (2.2 μM) it was 54%. Further, the “percent inhibition of Factor XI mRNA, relative to untreated control cells” value with human Factor XI mRNA [3] (6.7 μM) was found to be 88%; in the series with human Factor XI mRNA [3] (20 μM) it was 90%.

On to “416985 (antisense eG*e[5mC]*dA*dA*d[5mC]*d[5mC]*dG*dG*dG*dA*dT*dG*dA*dT*dG*eA*eG*eT*eG*e[5mC]) [compound 416985]”, for which, in the series with human Factor XI mRNA [1] (setting [5]), the “% inhibition” value was 88%. Moreover, the “percent inhibition of Factor XI mRNA, relative to untreated control cells” value in the series on human Factor XI mRNA [2] (9.375 nM) is listed as 17%; in the series on human Factor XI mRNA [2] (18.75 nM), 30%; with human Factor XI mRNA [2] (37.5 nM), 47%; in the series with human Factor XI mRNA [2] (75 nM) it was 57%; with human Factor XI mRNA [3] (0.7 μM) it was 12%; with human Factor XI mRNA [3] (2.2 μM), 48%. Besides, the “percent inhibition of Factor XI mRNA, relative to untreated control cells” value in the series on human Factor XI mRNA [3] (6.7 μM) was found to be 45%; in the series on human Factor XI mRNA [3] (20 μM), 69%.

“416989 (antisense eG*eA*dG*dA*dT*dT*d[5mC]*dT*dT*dT*dG*dG*dG*d[5mC]*d[5mC]*eA*eT*eT*e[5mC]*e[5mC]) [compound 416989]”: the “% inhibition” value in the series with human Factor XI mRNA [1] (setting [6]) is reported as 88%. Moreover, the “percent inhibition of Factor XI mRNA, relative to untreated control cells” value stood at 18% in the series with human Factor XI mRNA [2] (9.375 nM); 41% in the series on human Factor XI mRNA [2] (18.75 nM); 62% with human Factor XI mRNA [2] (37.5 nM); 83% in the series with human Factor XI mRNA [2] (75 nM); 32% in the series with human Factor XI mRNA [3] (0.7 μM); 65% in the series with human Factor XI mRNA [3] (2.2 μM). The “percent inhibition of Factor XI mRNA, relative to untreated control cells” value in the series on human Factor XI mRNA [3] (6.7 μM) was 88%; in the series on human Factor XI mRNA [3] (20 μM), 94%.

For the substance “416993 (antisense e[5mC]*eT*dT*dT*dG*dA*dG*dA*dT*dT*d[5mC]*dT*dT*dT*dG*eG*eG*e[5mC]*e[5mC]*eA) [compound 416993]”, the “% inhibition” value in the series on human Factor XI mRNA [1] (setting [6]) stood at 91%. The “percent inhibition of Factor XI mRNA, relative to untreated control cells” value in the series on human Factor XI mRNA [2] (9.375 nM) is recorded as 15%; in the series with human Factor XI mRNA [2] (18.75 nM), 37%; with human Factor XI mRNA [2] (37.5 nM) it was 50%; with human Factor XI mRNA [2] (75 nM) it was 68%; in the series with human Factor XI mRNA [3] (0.7 μM), 22%; with human Factor XI mRNA [3] (2.2 μM) it was 48%. The “percent inhibition of Factor XI mRNA, relative to untreated control cells” value is given as 87% in the series with human Factor XI mRNA [3] (6.7 μM) and 92% with human Factor XI mRNA [3] (20 μM).

On to “417000 (antisense eT*eG*d[5mC]*dA*d[5mC]*dA*dG*dT*dT*dT*d[5mC]*dT*dG*dG*d[5mC]*eA*eG*eG*e[5mC]*e[5mC]) [compound 417000]”, for which the “% inhibition” value in the series on human Factor XI mRNA [1] (setting [4]) was found to be 89%. Moreover, the “percent inhibition of Factor XI mRNA, relative to untreated control cells” value with human Factor XI mRNA [2] (9.375 nM) turned out to be 35%; in the series on human Factor XI mRNA [2] (18.75 nM), 47%; in the series on human Factor XI mRNA [2] (37.5 nM) it was 58%; in the series on human Factor XI mRNA [2] (75 nM) it was 70%; with human Factor XI mRNA [3] (0.7 μM) it was 46%; with human Factor XI mRNA [3] (2.2 μM), 73%. Moreover, the entries for the “percent inhibition of Factor XI mRNA, relative to untreated control cells” value in the series on human Factor XI mRNA [3] (6.7 μM) and in the series with human Factor XI mRNA [3] (20 μM) were 76% and 89%, respectively.
